According to publication PMC10178848, “Modulating fast skeletal muscle contraction protects skeletal muscle in animal models of Duchenne muscular dystrophy” (The Journal of Clinical Investigation, 2023):

Test system: GRMD plasma proteins
Type: in vivo, dog
Settings: Post-Treatment to GRMD baseline; Decreased in GRMD

Q: `O=c1ccc(-c2cnc(OCC(F)(F)F)nc2)nn1Cc1cncc(F)c1` [EDG-5506] was tested. Which “Collagenase 3 (MMP13): Change from GRMD Baseline (fraction)” value did it give?
A: Its value is -0.3148 fraction.

Q: And the “Collectin-12 (COLEC12): Change from GRMD Baseline (fraction)” value?
A: Its value is -0.0046 fraction.

Q: And the “Complement component C1q receptor (CD93): Change from GRMD Baseline (fraction)” value?
A: The value was -0.1418 fraction.

Q: What about the “Complement decay-accelerating factor (CD55): Change from GRMD Baseline (fraction)” value of the same compound?
A: Its value is 0.0605 fraction.

Q: And the “Contactin-1 (CNTN1): Change from GRMD Baseline (fraction)” value?
A: The value was -0.0113 fraction.

Q: And the “Corticotropin (POMC): Change from GRMD Baseline (fraction)” value?
A: The value was 0.0912 fraction.

Q: What about the “Cytotoxic and regulatory T-cell molecule (CRTAM): Change from GRMD Baseline (fraction)” value of the same compound?
A: Its value is 0.2824 fraction.

Q: What about the “Dickkopf-related protein 1 (DKK1): Change from GRMD Baseline (fraction)” value of the same compound?
A: Its value is -0.0925 fraction.

Q: What about the “Dickkopf-related protein 4 (DKK4): Change from GRMD Baseline (fraction)” value of the same compound?
A: Its value is -0.1272 fraction.

Q: What about the “E3 ubiquitin-protein ligase ZNRF3 (ZNRF3): Change from GRMD Baseline (fraction)” value of the same compound?
A: The value was 0.0469 fraction.

Q: And the “Ephrin type-A receptor 5 (EPHA5): Change from GRMD Baseline (fraction)” value?
A: Its value is -0.1823 fraction.

Q: And the “Ephrin-A2 (EFNA2): Change from GRMD Baseline (fraction)” value?
A: The value was -0.0773 fraction.

Q: And the “Ephrin-A5 (EFNA5): Change from GRMD Baseline (fraction)” value?
A: Its value is -0.1613 fraction.

Q: And the “Epidermal growth factor receptor (EGFR): Change from GRMD Baseline (fraction)” value?
A: The value was -0.0135 fraction.

Q: And the “Estradiol 17-beta-dehydrogenase 1 (HSD17B1): Change from GRMD Baseline (fraction)” value?
A: The value was 0.0729 fraction.

Q: And the “Fatty acid-binding protein, epidermal (FABP5): Change from GRMD Baseline (fraction)” value?
A: The value was 0.3761 fraction.

Q: And the “Fc receptor-like protein 3 (FCRL3): Change from GRMD Baseline (fraction)” value?
A: The value was -0.0287 fraction.

Q: What about the “GDNF family receptor alpha-2 (GFRA2): Change from GRMD Baseline (fraction)” value of the same compound?
A: The value was -0.0362 fraction.

Q: And the “Galectin-8 (LGALS8): Change from GRMD Baseline (fraction)” value?
A: Its value is 0.1492 fraction.

Q: And the “Galectin-9 (LGALS9): Change from GRMD Baseline (fraction)” value?
A: Its value is -0.0107 fraction.

Q: And the “Gamma-enolase (ENO2): Change from GRMD Baseline (fraction)” value?
A: The value was -0.0983 fraction.

Q: What about the “Gastrin-releasing peptide (GRP): Change from GRMD Baseline (fraction)” value of the same compound?
A: The value was 0.0411 fraction.

Q: What about the “Glutamate carboxypeptidase 2 (FOLH1): Change from GRMD Baseline (fraction)” value of the same compound?
A: Its value is 0.145 fraction.

Q: And the “Glypican-2 (GPC2): Change from GRMD Baseline (fraction)” value?
A: The value was 0.075 fraction.

Q: And the “Gremlin-1 (GREM1): Change from GRMD Baseline (fraction)” value?
A: Its value is 0.1318 fraction.

Q: And the “Growth/differentiation factor 8 (MSTN): Change from GRMD Baseline (fraction)” value?
A: The value was 0.065 fraction.

Q: What about the “Growth/differentiation factor 11/8 (GDF11 MSTN): Change from GRMD Baseline (fraction)” value of the same compound?
A: Its value is -0.0539 fraction.

Q: What about the “Hemoglobin (HBA1 HBB): Change from GRMD Baseline (fraction)” value of the same compound?
A: The value was -0.0209 fraction.

Q: What about the “Heparin cofactor 2 (SERPIND1): Change from GRMD Baseline (fraction)” value of the same compound?
A: The value was 0.014 fraction.

Q: And the “Hepatitis A virus cellular receptor 2 (HAVCR2): Change from GRMD Baseline (fraction)” value?
A: The value was 0.0719 fraction.

Q: What about the “High affinity immunoglobulin gamma Fc receptor I (FCGR1A): Change from GRMD Baseline (fraction)” value of the same compound?
A: The value was 0.0477 fraction.

Q: And the “Histone-lysine N-methyltransferase EHMT2 (EHMT2): Change from GRMD Baseline (fraction)” value?
A: The value was -0.0469 fraction.

Q: And the “Hyaluronan and proteoglycan link protein 1 (HAPLN1): Change from GRMD Baseline (fraction)” value?
A: The value was -0.1275 fraction.

Q: And the “Insulin-like growth factor 1 receptor (IGF1R): Change from GRMD Baseline (fraction)” value?
A: Its value is -0.1027 fraction.

Q: What about the “Integrin alpha-V: beta-5 complex (ITGAV ITGB5): Change from GRMD Baseline (fraction)” value of the same compound?
A: The value was 0.0267 fraction.

Q: What about the “Interleukin-4 receptor subunit alpha (IL4R): Change from GRMD Baseline (fraction)” value of the same compound?
A: The value was 0.0286 fraction.

Q: And the “Interleukin-18-binding protein (IL18BP): Change from GRMD Baseline (fraction)” value?
A: The value was -0.0841 fraction.

Q: What about the “Interstitial collagenase (MMP1): Change from GRMD Baseline (fraction)” value of the same compound?
A: Its value is 0.1983 fraction.

Q: What about the “Leucine-rich repeat transmembrane neuronal protein 3 (LRRTM3): Change from GRMD Baseline (fraction)” value of the same compound?
A: The value was 0.0593 fraction.

Q: And the “Limbic system-associated membrane protein (LSAMP): Change from GRMD Baseline (fraction)” value?
A: The value was -0.0633 fraction.

Q: What about the “Lymphocyte activation gene 3 protein (LAG3): Change from GRMD Baseline (fraction)” value of the same compound?
A: The value was 0.8111 fraction.

Q: What about the “Lysosome membrane protein 2 (SCARB2): Change from GRMD Baseline (fraction)” value of the same compound?
A: Its value is 0.1572 fraction.

Q: What about the “MHC class I polypeptide-related sequence B (MICB): Change from GRMD Baseline (fraction)” value of the same compound?
A: Its value is 0.6204 fraction.

Q: And the “Matrilin-2 (MATN2): Change from GRMD Baseline (fraction)” value?
A: The value was -0.1616 fraction.

Q: What about the “Melanoma-derived growth regulatory protein (MIA): Change from GRMD Baseline (fraction)” value of the same compound?
A: Its value is -0.1058 fraction.

Q: And the “Moesin (MSN): Change from GRMD Baseline (fraction)” value?
A: The value was 0.1568 fraction.

Q: What about the “Muellerian-inhibiting factor (AMH): Change from GRMD Baseline (fraction)” value of the same compound?
A: Its value is 0.0468 fraction.

Q: What about the “NKG2D ligand 1 (ULBP1): Change from GRMD Baseline (fraction)” value of the same compound?
A: Its value is -0.0033 fraction.

Q: What about the “NT-3 growth factor receptor (NTRK3): Change from GRMD Baseline (fraction)” value of the same compound?
A: The value was -0.1478 fraction.

Q: And the “Netrin receptor UNC5C (UNC5C): Change from GRMD Baseline (fraction)” value?
A: The value was -0.0587 fraction.

Q: And the “Neurogenic locus notch homolog protein 2 (NOTCH2): Change from GRMD Baseline (fraction)” value?
A: The value was 0.0095 fraction.

Q: And the “Neurogenic locus notch homolog protein 3 (NOTCH3): Change from GRMD Baseline (fraction)” value?
A: Its value is -0.0751 fraction.

Q: What about the “Nuclear receptor subfamily 1 group D member 1 (NR1D1): Change from GRMD Baseline (fraction)” value of the same compound?
A: The value was 0.0266 fraction.

Q: And the “Phospholipase A2 (PLA2G1B): Change from GRMD Baseline (fraction)” value?
A: The value was -0.0833 fraction.

Q: And the “Placenta growth factor (PGF): Change from GRMD Baseline (fraction)” value?
A: The value was -0.1111 fraction.

Q: What about the “Plasminogen (PLG): Change from GRMD Baseline (fraction)” value of the same compound?
A: The value was 0.0803 fraction.

Q: And the “PolyUbiquitin K63-linked (UBC): Change from GRMD Baseline (fraction)” value?
A: Its value is 0.2532 fraction.

Q: What about the “Proteasome activator complex subunit 3 (PSME3): Change from GRMD Baseline (fraction)” value of the same compound?
A: Its value is 0.0489 fraction.

Q: What about the “Protein S100-A4 (S100A4): Change from GRMD Baseline (fraction)” value of the same compound?
A: Its value is -0.1235 fraction.

Q: And the “Protein amnionless (AMN): Change from GRMD Baseline (fraction)” value?
A: The value was 0.002 fraction.
